Experimental data taken from PubChem BioAssay (NCI).
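In this assay, cells in 96-well plates receive the compound at five concentrations for 48 hours. Endpoints are linearly interpolated between the surrounding concentrations. Definition used: TGI = concentration required for complete inhibition of growth.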

Key:
Assay in all cases: DTP human tumour cell line panel, 48 h
[1] = system: 786-0 renal
[2] = system: A498 renal
[3] = system: A549 NSCLC
[4] = system: ACHN renal
[5] = system: CAKI-1 renal
[6] = system: CCRF-CEM leukemia
[7] = system: COLO 205 colon
[8] = system: DU-145 prostate
[9] = system: EKVX NSCLC
[10] = system: HCC-2998 colon
[11] = system: HCT-116 colon
[12] = system: HCT-15 colon
[13] = system: HL-60(TB) leukemia
[14] = system: HOP-62 NSCLC
[15] = system: HOP-92 NSCLC
[16] = system: HS 578T breast
[17] = system: HT29 colon
[18] = system: IGROV1 ovarian
[19] = system: K-562 leukemia
[20] = system: KM12 colon
[21] = system: LOX IMVI melanoma
[22] = system: M14 melanoma
[23] = system: MALME-3M melanoma
[24] = system: MCF7 breast
[25] = system: MDA-MB-231 breast
[26] = system: MDA-MB-435
[27] = system: MDA-N
[28] = system: MOLT-4 leukemia
[29] = system: NCI-H226 lung
[30] = system: NCI-H23 lung
[31] = system: NCI-H460 lung
[32] = system: NCI-H522 lung
[33] = system: NCI/ADR-RES ovarian
[34] = system: OVCAR-3 ovarian
[35] = system: OVCAR-4 ovarian
[36] = system: OVCAR-5 ovarian
[37] = system: OVCAR-8 ovarian
[38] = system: PC-3 prostate
[39] = system: RPMI-8226 leukemia
[40] = system: RXF 393 renal
[41] = system: SF-268 CNS
[42] = system: SF-295 CNS
[43] = system: SF-539 CNS
[44] = system: SK-MEL-28 melanoma
[45] = system: SK-MEL-5 melanoma
[46] = system: SK-OV-3 ovarian
[47] = system: SN12C renal
[48] = system: SNB-19 CNS
[49] = system: SNB-75 CNS
[50] = system: SR leukemia
[51] = system: SW-620 colon
[52] = system: T-47D breast
[53] = system: TK-10 renal
[54] = system: U251 CNS
[55] = system: UACC-257 melanoma
[56] = system: UACC-62 melanoma
[57] = system: UO-31 renal

Measured: TGI

CCOC(=O)C(NS(=O)(=O)c1ccccc1)(C(F)(F)F)P(=O)(OCC(C)C)OCC(C)C (configuration not stated)
> 100 µM: [1] | [2] | [3] | [4] | [5] | [6] | [7] | [8] | [9] | [10] | [11] | [12] | [13] | [14] | [15] | [16] | [17] | [18] | [19] | [20] | [21] | [22] | [23] | [24] | [25] | [26] | [27] | [28] | [29] | [30] | [31] | [32] | [33] | [34] | [35] | [36] | [37] | [38] | [39] | [40] | [41] | [42] | [43] | [44] | [45] | [46] | [47] | [48] | [49] | [50] | [51] | [52] | [53] | [54] | [55] | [56] | [57]
